# Source: PubChem BioAssay (NCI)
# “And” between values parts separate entries of the source, which are not always exact repeats. Equal values may be shown once.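 Each compound was tested at five concentrations against cells in 96-well plates for 48 hours. The concentration for 50% growth inhibition is given as GI50. Definition used: TGI = concentration required for complete inhibition of growth.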
# Assays:
# Assay in all cases: growth of human tumour cells (NCI), 48 h
# HL-60(TB) leukemia = tested on: HL-60(TB) leukemia
# IGROV1 ovarian = tested on: IGROV1 ovarian
# SK-OV-3 ovarian = tested on: SK-OV-3 ovarian
# SF-539 CNS = tested on: SF-539 CNS
# SW-620 colon = tested on: SW-620 colon
# ACHN renal = tested on: ACHN renal
# K-562 leukemia = tested on: K-562 leukemia
# SR leukemia = tested on: SR leukemia
# RPMI-8226 leukemia = tested on: RPMI-8226 leukemia
# KM12 colon = tested on: KM12 colon
# HCT-116 colon = tested on: HCT-116 colon
# UO-31 renal = tested on: UO-31 renal
# NCI-H460 lung = tested on: NCI-H460 lung
# COLO 205 colon = tested on: COLO 205 colon
# LOX IMVI melanoma = tested on: LOX IMVI melanoma
# OVCAR-4 ovarian = tested on: OVCAR-4 ovarian
# CCRF-CEM leukemia = tested on: CCRF-CEM leukemia
# SK-MEL-5 melanoma = tested on: SK-MEL-5 melanoma
# OVCAR-5 ovarian = tested on: OVCAR-5 ovarian
# NCI-H226 lung = tested on: NCI-H226 lung
# SF-295 CNS = tested on: SF-295 CNS
# SNB-19 CNS = tested on: SNB-19 CNS
# A549 NSCLC = tested on: A549 NSCLC
# MALME-3M melanoma = tested on: MALME-3M melanoma
# HT29 colon = tested on: HT29 colon
# U251 CNS = tested on: U251 CNS
# SN12C renal = tested on: SN12C renal
# EKVX NSCLC = tested on: EKVX NSCLC
# A498 renal = tested on: A498 renal
# DU-145 prostate = tested on: DU-145 prostate
# OVCAR-3 ovarian = tested on: OVCAR-3 ovarian
# MDA-MB-231 breast = tested on: MDA-MB-231 breast
# SK-MEL-2 melanoma = tested on: SK-MEL-2 melanoma
# MOLT-4 leukemia = tested on: MOLT-4 leukemia
# HOP-92 NSCLC = tested on: HOP-92 NSCLC
# MCF7 breast = tested on: MCF7 breast
# CAKI-1 renal = tested on: CAKI-1 renal
# UACC-257 melanoma = tested on: UACC-257 melanoma
# 786-0 renal = tested on: 786-0 renal
# NCI-H23 lung = tested on: NCI-H23 lung
# HCC-2998 colon = tested on: HCC-2998 colon
# SK-MEL-28 melanoma = tested on: SK-MEL-28 melanoma
# HS 578T breast = tested on: HS 578T breast
# MDA-N = tested on: MDA-N
# SF-268 CNS = tested on: SF-268 CNS
# UACC-62 melanoma = tested on: UACC-62 melanoma
# M14 melanoma = tested on: M14 melanoma
# T-47D breast = tested on: T-47D breast
# HCT-15 colon = tested on: HCT-15 colon
# NCI-H522 lung = tested on: NCI-H522 lung
# MDA-MB-435 = tested on: MDA-MB-435
# BT-549 breast = tested on: BT-549 breast
# OVCAR-8 ovarian = tested on: OVCAR-8 ovarian
# PC-3 prostate = tested on: PC-3 prostate
# TK-10 renal = tested on: TK-10 renal
# NCI/ADR-RES ovarian = tested on: NCI/ADR-RES ovarian
# SNB-75 CNS = tested on: SNB-75 CNS
# HOP-62 NSCLC = tested on: HOP-62 NSCLC
# RXF 393 renal = tested on: RXF 393 renal
structure (smiles),measurement,setting,value
NNc1c(C(N)=O)c2c(N)ncnc2n1C1OC(CO)C(O)C1O (stereo not given),GI50,HL-60(TB) leukemia,66.5 nM and < 11.8 nM
same,TGI,HL-60(TB) leukemia,785 nM and 125 nM
same,GI50,IGROV1 ovarian,27.6 nM and 47.6 nM
same,TGI,IGROV1 ovarian,1120 nM and 3540 nM
same,GI50,SK-OV-3 ovarian,< 13.7 nM and 27.3 nM
same,TGI,SK-OV-3 ovarian,413 nM and 361 nM
same,GI50,SF-539 CNS,52.9 nM and 71.8 nM
same,TGI,SF-539 CNS,1150 nM and 273 nM
same,GI50,SW-620 colon,< 12.4 nM
same,TGI,SW-620 colon,992 nM and 241 nM
same,GI50,ACHN renal,16.7 nM
same,TGI,ACHN renal,101 nM and 499 nM
same,GI50,K-562 leukemia,19.9 nM
same,TGI,K-562 leukemia,16300 nM and > 100000 nM
same,GI50,SR leukemia,25.2 nM
same,TGI,SR leukemia,19.4 nM and 63.9 nM
same,GI50,RPMI-8226 leukemia,40.4 nM and 36.4 nM
same,TGI,RPMI-8226 leukemia,221 nM and 143 nM
same,GI50,KM12 colon,45.3 nM and 47.5 nM
same,TGI,KM12 colon,12400 nM
same,GI50,HCT-116 colon,< 10 nM
same,GI50,UO-31 renal,< 14.3 nM and 24.6 nM
same,TGI,UO-31 renal,95.9 nM and 454 nM
same,GI50,NCI-H460 lung,19.7 nM and 140 nM
same,TGI,NCI-H460 lung,673 nM and 4450 nM
same,GI50,COLO 205 colon,< 10 nM
same,TGI,COLO 205 colon,55.2 nM and 34.2 nM
same,GI50,LOX IMVI melanoma,34.9 nM
same,TGI,LOX IMVI melanoma,130 nM and 1200 nM
same,GI50,OVCAR-4 ovarian,< 10.5 nM
same,TGI,OVCAR-4 ovarian,776 nM and 160 nM
same,GI50,CCRF-CEM leukemia,< 14.6 nM
same,TGI,CCRF-CEM leukemia,< 48.3 nM and 120 nM
same,GI50,SK-MEL-5 melanoma,60.1 nM and 82.8 nM
same,TGI,SK-MEL-5 melanoma,194 nM and 275 nM
same,GI50,OVCAR-5 ovarian,57.8 nM and 309 nM
same,TGI,OVCAR-5 ovarian,1100 nM and 7560 nM
same,GI50,NCI-H226 lung,251 nM
same,TGI,SF-295 CNS,9440 nM and 2910 nM
same,GI50,SNB-19 CNS,187 nM
same,TGI,SNB-19 CNS,8540 nM and 18200 nM
same,GI50,A549 NSCLC,33.6 nM and 92.4 nM
same,TGI,A549 NSCLC,12700 nM and 3440 nM
same,GI50,MALME-3M melanoma,20.5 nM and 36.3 nM
same,TGI,MALME-3M melanoma,84 nM and 171 nM
same,GI50,HT29 colon,< 11.8 nM
same,GI50,U251 CNS,23 nM and 63.5 nM
same,TGI,U251 CNS,12900 nM and > 100000 nM
same,GI50,SN12C renal,19 nM and 44.3 nM
same,TGI,SN12C renal,174 nM and 580 nM
same,GI50,EKVX NSCLC,208 nM
same,TGI,EKVX NSCLC,841 nM and 4360 nM
same,GI50,A498 renal,44.5 nM and 161 nM
same,TGI,A498 renal,485 nM and 1260 nM
same,GI50,DU-145 prostate,< 15.1 nM
same,TGI,DU-145 prostate,183 nM and 178 nM
same,GI50,OVCAR-3 ovarian,17.6 nM and 21.9 nM
same,TGI,OVCAR-3 ovarian,400 nM and 335 nM
same,GI50,MDA-MB-231 breast,86 nM
same,TGI,MDA-MB-231 breast,491 nM and 2230 nM
same,GI50,SK-MEL-2 melanoma,27.3 nM and 25.6 nM
same,TGI,SK-MEL-2 melanoma,94.6 nM and 307 nM
same,GI50,MOLT-4 leukemia,23.2 nM and 96.4 nM
same,TGI,MOLT-4 leukemia,103 nM and 495 nM
same,GI50,HOP-92 NSCLC,28.5 nM and 50.7 nM
same,TGI,HOP-92 NSCLC,347 nM and 333 nM
same,GI50,MCF7 breast,72.9 nM
same,TGI,MCF7 breast,179 nM and 1290 nM
same,GI50,CAKI-1 renal,17.1 nM and < 16.7 nM
same,TGI,CAKI-1 renal,826 nM and 909 nM
same,GI50,UACC-257 melanoma,40.4 nM and 132 nM
same,TGI,UACC-257 melanoma,254 nM and 1370 nM
same,GI50,786-0 renal,35.4 nM and 107 nM
same,TGI,786-0 renal,405 nM and 1870 nM
same,GI50,NCI-H23 lung,26.8 nM and 50.7 nM
same,TGI,NCI-H23 lung,266 nM and 319 nM
same,GI50,HCC-2998 colon,< 17.6 nM and 16.5 nM
same,TGI,HCC-2998 colon,46.2 nM and 69.1 nM
same,GI50,SK-MEL-28 melanoma,138 nM and 29.1 nM
same,TGI,SK-MEL-28 melanoma,759 nM and 192 nM
same,GI50,HS 578T breast,56 nM and 107 nM
same,TGI,HS 578T breast,826 nM and 2380 nM
same,TGI,MDA-N,144 nM
same,GI50,SF-268 CNS,45.1 nM and 92.8 nM
same,TGI,SF-268 CNS,1050 nM and 1220 nM
same,GI50,UACC-62 melanoma,26.9 nM and 40.9 nM
same,TGI,UACC-62 melanoma,124 nM and 168 nM
same,GI50,M14 melanoma,< 12.7 nM and 18.8 nM
same,TGI,M14 melanoma,49.8 nM and 162 nM
same,TGI,T-47D breast,104 nM and 140 nM
same,GI50,HCT-15 colon,29.2 nM
same,TGI,HCT-15 colon,1500 nM and 3040 nM
same,GI50,NCI-H522 lung,32.8 nM and 152 nM
same,GI50,MDA-MB-435,34.6 nM and 48.3 nM
same,TGI,MDA-MB-435,148 nM and 265 nM
same,GI50,BT-549 breast,35.5 nM and 40.7 nM
same,TGI,BT-549 breast,624 nM and 672 nM
same,GI50,OVCAR-8 ovarian,17.8 nM and 34.3 nM
same,TGI,OVCAR-8 ovarian,11500 nM and 3510 nM
same,GI50,PC-3 prostate,22.4 nM and 46.4 nM
same,TGI,PC-3 prostate,220 nM and 304 nM
same,GI50,TK-10 renal,24.3 nM and 43.4 nM
same,TGI,TK-10 renal,1140 nM and 1490 nM
same,GI50,NCI/ADR-RES ovarian,17.9 nM and 37.4 nM
same,TGI,NCI/ADR-RES ovarian,289 nM and 754 nM
same,GI50,SNB-75 CNS,106 nM
same,TGI,SNB-75 CNS,1090 nM and 448 nM
same,GI50,HOP-62 NSCLC,124 nM
same,GI50,RXF 393 renal,25.4 nM and < 14.3 nM
same,TGI,RXF 393 renal,186 nM and 125 nM
